Assay results published in article PMC9454456 (Journal of Nuclear Medicine, 2022).

Legend:
physchem = format: physicochemical; conditions: pH 7.4
Procedure: The layers were separated by centrifugation at 2,000 rpm (416g) for 5 min. Aliquots of 100 μL were removed from each phase and measured in a Wizard γ-counter (PerkinElmer). Calculated logD7.4 values were expressed as the mean ± SD from 3 experiments.

in vivo [1] = experiment: in vivo; set-up: species or system mice; conditions: mouse, iv, 3.4 MBq, total radioactivity, Biodistribution
Procedure: Blood and major organs were harvested immediately, weighed, and counted using a γ-counter. The radioactivity of each sample was calculated as the percentage of injected dose per gram of tissue (%ID/g) and corrected for radioactive decay.

NTR1 = target: T1, NTR1 (Homo sapiens, UniProt P30989); experiment: Competitive receptor binding assay in NTR1-positive PC3 cells; conditions: 37 kBq tracer, NT 10^-8–10^2 μM as competitive inhibitor, 60 min, 37°C, γ-counter, mean ± SD, read-out: half-maximal inhibitory concentration
T1 construct: endogenous in cells; host or cells: PC3 human prostate adenocarcinoma cells
Procedure: After incubation for 60 min at 37°C, the medium of each well was removed and the cells were washed twice with PBS. The removed medium and washing PBS were collected to represent the amount of free radioligand. The adherent cells were lysed with NaOH (0.1 M, 200 μL) and harvested after being washed twice by PBS. Finally, the cell-bound radioactivity (3 × 10^5 cells/mL) and the amount of free radioligand were measured in a γ-counter. The half-maximal inhibitory concentration was calculated using GraphPad Prism software. […] The radioactivity of adherent cells (3 × 10^5 cells/mL) was then measured after they were extracted with NaOH (0.1 M, 200 μL) and washed twice with PBS.

PC3-xenografted mice [2] = conditions: mouse, in vivo
Procedure: (§1) Images were reconstructed using 3-dimensional ordered-subset expectation maximization with attenuation correction. Regions of interest were drawn over the tumors and main organs, and average signal levels in the regions were measured using an Inveon Research Workplace workstation.

in vivo [3] = conditions: mouse, iv, 7.4 MBq, total radioactivity
Procedure: as §1

LNCap-xenografted mice = experiment: Small-animal PET/CT imaging, LNCap xenografts; conditions: LNCap xenograft, 7.4 MBq i.v., 1 h after injection, mean ± SD
Procedure: as §1

PC3-xenografted mice [4] = experiment: Small-animal PET/CT imaging, PC3 xenografts; conditions: PC3 xenograft, 7.4 MBq i.v., 1 h after injection, mean ± SD
Procedure: as §1

T1 sequence (P30989 whole entry): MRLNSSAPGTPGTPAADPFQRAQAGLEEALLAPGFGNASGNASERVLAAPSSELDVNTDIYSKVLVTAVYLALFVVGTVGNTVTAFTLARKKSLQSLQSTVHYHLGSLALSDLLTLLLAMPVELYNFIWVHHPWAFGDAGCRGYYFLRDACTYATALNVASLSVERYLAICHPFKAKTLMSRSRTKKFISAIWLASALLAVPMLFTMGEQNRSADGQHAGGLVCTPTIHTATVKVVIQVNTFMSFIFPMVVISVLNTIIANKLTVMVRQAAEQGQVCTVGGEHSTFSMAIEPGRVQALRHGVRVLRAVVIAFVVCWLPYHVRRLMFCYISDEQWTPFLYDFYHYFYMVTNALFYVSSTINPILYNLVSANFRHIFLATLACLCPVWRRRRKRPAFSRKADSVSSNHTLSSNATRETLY

CC(=O)NC(CCCCNC(=O)CN1CCN(CC(=O)O)CCN(CC(=O)O)CCN(CC(=O)O)CC1)C(=O)N1CCCC1C(=O)N(C)C(CCCNC(=N)N)C(=O)NC(CCCNC(=N)N)C(=O)N1CCCC1C(=O)NC(Cc1ccc(O)cc1)C(=O)NC(C(=O)NC(CC(C)C)C(=O)O)C(C)(C)C (centres unmarked) [^68Ga-DOTA-NT-20.3, metal not drawn] gave a logD (physchem) of -3.68 ± 0.14, a tissue uptake at 5 min (in vivo [1]; Blood) of 8.11 ± 1.54 %ID/g and a tissue uptake at 0.25 h (in vivo [1]; Blood) of 4.15 ± 0.59 %ID/g. The tissue uptake at 0.5 h (in vivo [1]; Blood) was 2.56 ± 0.23 %ID/g, the tissue uptake at 1 h (in vivo [1]; Blood) was 1.12 ± 0.22 %ID/g and the tissue uptake at 2 h (in vivo [1]; Blood) was 0.43 ± 0.08 %ID/g. The tissue uptake at 5 min (in vivo [1]; Bone) was 2.27 ± 0.29 %ID/g, the tissue uptake at 0.25 h (in vivo [1]; Bone) was 2.35 ± 0.52 %ID/g and the tissue uptake at 0.5 h (in vivo [1]; Bone) was 1.27 ± 0.08 %ID/g. It also gave a tissue uptake at 1 h (in vivo [1]; Bone) of 0.86 ± 0.17 %ID/g, a tissue uptake at 2 h (in vivo [1]; Bone) of 0.53 ± 0.17 %ID/g and a tissue uptake at 5 min (in vivo [1]; Brain) of 1.91 ± 0.39 %ID/g. It also gave a tissue uptake at 0.25 h (in vivo [1]; Brain) of 1.35 ± 0.15 %ID/g, a tissue uptake at 0.5 h (in vivo [1]; Brain) of 0.88 ± 0.1 %ID/g and a tissue uptake at 1 h (in vivo [1]; Brain) of 0.6 ± 0.05 %ID/g. It also gave a tissue uptake at 2 h (in vivo [1]; Brain) of 0.33 ± 0.1 %ID/g, a tissue uptake at 5 min (in vivo [1]; Fat) of 1.42 ± 0.23 %ID/g and a tissue uptake at 0.25 h (in vivo [1]; Fat) of 1.11 ± 0.23 %ID/g. It also gave a tissue uptake at 0.5 h (in vivo [1]; Fat) of 0.62 ± 0.11 %ID/g, a tissue uptake at 1 h (in vivo [1]; Fat) of 0.32 ± 0.03 %ID/g and a tissue uptake at 2 h (in vivo [1]; Fat) of 0.32 ± 0.07 %ID/g. The tissue uptake at 5 min (in vivo [1]; Heart) was 7.7 ± 0.9 %ID/g, the tissue uptake at 0.25 h (in vivo [1]; Heart) was 3.88 ± 0.18 %ID/g and the tissue uptake at 0.5 h (in vivo [1]; Heart) was 2.78 ± 0.36 %ID/g. The tissue uptake at 1 h (in vivo [1]; Heart) was 1.57 ± 0.18 %ID/g, the tissue uptake at 2 h (in vivo [1]; Heart) was 0.58 ± 0.11 %ID/g and the tissue uptake at 5 min (in vivo [1]; Intestine) was 3.28 ± 0.3 %ID/g. It also gave a tissue uptake at 0.25 h (in vivo [1]; Intestine) of 2.31 ± 0.92 %ID/g, a tissue uptake at 0.5 h (in vivo [1]; Intestine) of 1.47 ± 0.26 %ID/g and a tissue uptake at 1 h (in vivo [1]; Intestine) of 0.77 ± 0.24 %ID/g. It also gave a tissue uptake at 2 h (in vivo [1]; Intestine) of 0.38 ± 0.04 %ID/g, a tissue uptake at 5 min (in vivo [1]; Kidney) of 18.4 ± 1.27 %ID/g and a tissue uptake at 0.25 h (in vivo [1]; Kidney) of 21.2 ± 1.95 %ID/g. For the same molecule, the tissue uptake at 0.5 h (in vivo [1]; Kidney) was 23.1 ± 1.94 %ID/g, the tissue uptake at 1 h (in vivo [1]; Kidney) was 24.6 ± 0.98 %ID/g and the tissue uptake at 2 h (in vivo [1]; Kidney) was 26.1 ± 0.79 %ID/g. The tissue uptake at 5 min (in vivo [1]; Liver) was 5.46 ± 1.01 %ID/g, the tissue uptake at 0.25 h (in vivo [1]; Liver) was 3.17 ± 0.45 %ID/g and the tissue uptake at 0.5 h (in vivo [1]; Liver) was 2.02 ± 0.48 %ID/g. It also gave a tissue uptake at 1 h (in vivo [1]; Liver) of 1.44 ± 0.2 %ID/g, a tissue uptake at 2 h (in vivo [1]; Liver) of 0.86 ± 0.49 %ID/g and a tissue uptake at 5 min (in vivo [1]; Lung) of 5.18 ± 0.16 %ID/g. It also gave a tissue uptake at 0.25 h (in vivo [1]; Lung) of 3.28 ± 0.62 %ID/g, a tissue uptake at 0.5 h (in vivo [1]; Lung) of 1.91 ± 0.15 %ID/g and a tissue uptake at 1 h (in vivo [1]; Lung) of 1.2 ± 0.23 %ID/g. For the same molecule, the tissue uptake at 2 h (in vivo [1]; Lung) was 0.75 ± 0.15 %ID/g, the tissue uptake at 5 min (in vivo [1]; Muscle) was 1.93 ± 0.65 %ID/g and the tissue uptake at 0.25 h (in vivo [1]; Muscle) was 1.44 ± 0.17 %ID/g. For the same molecule, the tissue uptake at 0.5 h (in vivo [1]; Muscle) was 0.96 ± 0.08 %ID/g, the tissue uptake at 1 h (in vivo [1]; Muscle) was 0.51 ± 0.02 %ID/g and the tissue uptake at 2 h (in vivo [1]; Muscle) was 0.32 ± 0.04 %ID/g. The tissue uptake at 5 min (in vivo [1]; Pancreas) was 2.88 ± 0.61 %ID/g, the tissue uptake at 0.25 h (in vivo [1]; Pancreas) was 2.03 ± 0.26 %ID/g and the tissue uptake at 0.5 h (in vivo [1]; Pancreas) was 1.59 ± 0.6 %ID/g. The tissue uptake at 1 h (in vivo [1]; Pancreas) was 1.05 ± 0.07 %ID/g, the tissue uptake at 2 h (in vivo [1]; Pancreas) was 0.36 ± 0.04 %ID/g and the tissue uptake at 5 min (in vivo [1]; Spleen) was 3.97 ± 0.39 %ID/g. It also gave a tissue uptake at 0.25 h (in vivo [1]; Spleen) of 2.81 ± 0.47 %ID/g, a tissue uptake at 0.5 h (in vivo [1]; Spleen) of 1.85 ± 0.43 %ID/g and a tissue uptake at 1 h (in vivo [1]; Spleen) of 1.06 ± 0.27 %ID/g. The tissue uptake at 2 h (in vivo [1]; Spleen) was 0.41 ± 0.04 %ID/g, the tissue uptake at 5 min (in vivo [1]; Stomach) was 3.56 ± 0.31 %ID/g and the tissue uptake at 0.25 h (in vivo [1]; Stomach) was 2.49 ± 0.35 %ID/g. The tissue uptake at 0.5 h (in vivo [1]; Stomach) was 1.75 ± 0.38 %ID/g, the tissue uptake at 1 h (in vivo [1]; Stomach) was 0.91 ± 0.18 %ID/g and the tissue uptake at 5 min (in vivo [1]; Testis) was 1.62 ± 0.11 %ID/g. For the same molecule, the tissue uptake at 0.25 h (in vivo [1]; Testis) was 1.31 ± 0.05 %ID/g, the tissue uptake at 0.5 h (in vivo [1]; Testis) was 0.8 ± 0.06 %ID/g and the tissue uptake at 1 h (in vivo [1]; Testis) was 0.42 ± 0.04 %ID/g. The tissue uptake at 2 h (in vivo [1]; Testis) was 0.31 ± 0.1 %ID/g, the tissue uptake at 5 min (in vivo [1]; Tumor) was 2.81 ± 0.39 %ID/g and the tissue uptake at 0.25 h (in vivo [1]; Tumor) was 3.93 ± 0.43 %ID/g. The tissue uptake at 0.5 h (in vivo [1]; Tumor) was 5.7 ± 0.8 %ID/g, the tissue uptake at 1 h (in vivo [1]; Tumor) was 6.26 ± 0.41 %ID/g and the tissue uptake at 2 h (in vivo [1]; Tumor) was 3.74 ± 0.56 %ID/g. For the same molecule, the IC50 (NTR1) was 7.59 ± 0.41 nM, the tumor retention time (PC3-xenografted mice [2]) was “up to 4 h” and the tissue uptake at 0.5 h (in vivo [3]) was 4.53 ± 1.26 %ID/g.

In the case of O=C([O-])CN(CCN(CC(=O)[O-])Cc1cc(CCC(=O)NCCCCCC(=O)NCCCC[C@H](NC(=O)N[C@@H](CCC(=O)O)C(=O)O)C(=O)O)ccc1[O-])Cc1cc(CCC(=O)O)ccc1[O-].[68Ga+3].[OH3+] [^68Ga-PSMA-11], the “tumor uptake (PET region of interest)” value (LNCap-xenografted mice) is reported as 8.60 ± 2.11 %ID/g and the “tumor uptake (PET region of interest)” value (PC3-xenografted mice [4]) is reported as 0.53 ± 0.05 %ID/g.
